This is an account of results in patent US20110136792A1, “NOVEL CARBOXYLIC ACID ANALOGS AS GLYCOGEN SYNTHASE ACTIVATORS” (priority 2009, published 2011).

SMILES strings stand for the structures.

This experiment concerns glycogen synthase. The experiment can be described thus: Glycogen Synthase (GS) Assay. The settings on record: coupled pyruvate kinase/lactate dehydrogenase assay, absorbance at 340 nm; for EC50: compound concentration needed to give 50% maximum activation; for GS SC200: compound concentration needed to stimulate 200% of the enzyme activity. The class given is biochemical. The procedure: The following tests were carried out in order to determine the activity of the compounds of formula (I).
Twelve μL per well of substrate solution containing glycogen (4.32 mg/ml), 2.67 mM UDP-glucose, 21.6 mM phospho(enol)pyruvate and 2.7 mM NADH in 30 mM glycylglycine, pH 7.3 buffer was added into a polystyrene 384-well assay plate (BD Biosciences).
Compound solutions (8 μL/well) at various concentrations (0-300 μM) were added to the assay plate (columns 5-24). Compound solution contains 30 mM glycylglycine, pH 7.3, 40 mM KCl, 20 mM MgCl2, 9.2% DMSO, with (columns 15-24) or without (columns 5-14) 20 mM glucose 6-phosphate.
Enzyme solution (12 μL/well) containing glycogen synthase (16.88 μg/ml), pyruvate kinase (0.27 mg/ml), lactate dehydrogenase (0.27 mg/ml) in 50 mM Tris-HCl, pH 8.0, 27 mM DTT and bovine serum albumin (BSA, 0.2 mg/ml) was added to the assay plate (columns 3-24). As a blank control, enzyme solution without glycogen synthase was added into the top half wells of columns 1-2. To the bottom half wells of columns 1-2 were added a known activator, glucose 6-phosphate (at final concentration 5 mM) in addition to the enzyme solution. The reaction mixture was incubated at room temperature. The assay plate was then read for absorbance at 340 nm on an Envision reader every 3 minutes up to a total of 15 minutes.
The enzyme activity (with or without compound) was calculated by the reaction rate and represented by the optical density change (δOD) per minute. Percent stimulation of glycogen synthase activity by a compound at various concentrations was calculated by the following formula: […]
Where Rs is the reaction rate of the enzyme in the presence of compound and Rt is the reaction rate of the enzyme in the absence of compound.
SC200 is defined as the compound concentration that is needed to stimulate 200% of the enzyme activity. EC50 is defined as the compound concentration that is needed to give 50% maximum activation.
Compounds from Examples 1 through Example 64 were assayed according to assay procedures described above and the result is listed in Table 1 below: […]

Take `O=C(O)[C@H]1CCS(=O)(=O)N1Cc1cccc(COc2ccc(-c3cc(F)c(F)cc3F)cc2)c1` [Example 47, (R)-1,1-Dioxo-2-[3-(2′,4′,5′-trifluoro-biphenyl-4-yloxymethyl)-benzyl]-1lambda*6*-isothiazolidine-3-carboxylic acid]: the EC50 stood at 1.82 µM and the “GS SC200” value worked out at 0.62 µM.
The matching figures for `Cc1cc(F)c(F)cc1-c1ccc(OCc2cccc(CN3[C@H](C(=O)O)CCS3(=O)=O)c2)cc1` [Example 48, (S)-2-[3-(4′,5′-Difluoro-2′-methyl-biphenyl-4-yloxymethyl)-benzyl]-1,1-dioxo-1lambda*6*-isothiazolidine-3-carboxylic acid]: 0.11 µM and 0.01 µM.
As to `Cc1cc(F)c(F)cc1-c1ccc(OCc2cccc(CN3[C@@H](C(=O)O)CCS3(=O)=O)c2)cc1` [Example 49, (R)-2-[3-(4′,5′-Difluoro-2′-methyl-biphenyl-4-yloxymethyl)-benzyl]-1,1-dioxo-1lambda*6*-isothiazolidine-3-carboxylic acid], the EC50 amounted to 0.89 µM and the “GS SC200” value was 0.35 µM.
Taken in the same sequence, the figures for `O=C(O)[C@H]1CCS(=O)(=O)N1Cc1cccc(COc2ccc(-c3cc(F)c(F)cc3Cl)cc2)c1` [Example 50, (R)-2-[3-(2′-Chloro-4′,5′-difluoro-biphenyl-4-yloxymethyl)-benzyl]-1,1-dioxo-1lambda*6*-isothiazolidine-3-carboxylic acid] were 0.84 µM and 0.42 µM.
The matching figures for `O=C(O)[C@@H]1CCS(=O)(=O)N1Cc1cccc(COc2ccc(-c3cc(F)c(F)cc3Cl)cc2)c1` [Example 51, (S)-2-[3-(2′-Chloro-4′,5′-difluoro-biphenyl-4-yloxymethyl)-benzyl]-1,1-dioxo-1lambda*6*-isothiazolidine-3-carboxylic acid]: 0.1 µM and 0.03 µM.
The matching figures for `COc1cc(F)c(F)cc1-c1ccc(OCc2cccc(CN3C(=O)CC[C@H]3C(=O)O)c2)cc1` [Example 52, (S)-1-[3-(4′,5′-Difluoro-2′-methoxy-biphenyl-4-yloxymethyl)-benzyl]-5-oxo-pyrrolidine-2-carboxylic acid]: 0.12 µM and 0.02 µM.
Turning to `O=C(O)[C@@H]1CCC(=O)N1Cc1cccc(COc2ccc(-c3cc(F)c(F)cc3F)cc2)c1` [Example 53, (S)-5-Oxo-1-[3-(2′,4′,5′-trifluoro-biphenyl-4-yloxymethyl)-benzyl]-pyrrolidine-2-carboxylic acid], the concentration giving a half-maximal response (EC50) turned out to be 0.13 µM and the “GS SC200” value amounted to 0.03 µM.
The matching figures for `O=C(O)C(F)(F)F.O=C(O)[C@@H]1CCCN1Cc1cccc(COc2ccc(-c3ccc(F)cc3F)cc2)c1` [Example 54, (S)-1-[3-(2′,4′-Difluoro-biphenyl-4-yloxymethyl)-benzyl]-pyrrolidine-2-carboxylic acid; trifluoro-acetic acid salt]: 3.71 µM and 0.90 µM.
The matching figures for `COc1cc(F)c(F)cc1-c1ccc(OCc2cccc(CN3[C@@H](C(=O)O)CCCS3(=O)=O)c2)cc1` [Example 55, (R)-2-[3-(4′,5′-Difluoro-2′-methoxy-biphenyl-4-yloxymethyl)-benzyl]-1,1-dioxo-1lambda*6*-[1,2]thiazinane-3-carboxylic acid]: 0.33 µM and 0.16 µM.
`COc1cc(F)c(F)cc1-c1ccc(OCc2cccc(CN3[C@H](C(=O)O)CCCS3(=O)=O)c2)cc1` [Example 56, (S)-2-[3-(4′,5′-Difluoro-2′-methoxy-biphenyl-4-yloxymethyl)-benzyl]-1,1-dioxo-1lambda*6*-[1,2]thiazinane-3-carboxylic acid]: the EC50 was determined as 0.11 µM and the “GS SC200” value was 0.04 µM.
Taken in the same sequence, the figures for `O=C(O)[C@H]1CCCS(=O)(=O)N1Cc1cccc(COc2ccc(-c3cc(F)c(F)cc3F)cc2)c1` [Example 57, (R)-1,1-Dioxo-2-[3-(2′,4′,5′-trifluoro-biphenyl-4-yloxymethyl)-benzyl]-1lambda*6*-[1,2]thiazinane-3-carboxylic acid] were 2.34 µM and 1.22 µM.
Taken in the same sequence, the figures for `O=C(O)[C@@H]1CCCS(=O)(=O)N1Cc1cccc(COc2ccc(-c3cc(F)c(F)cc3F)cc2)c1` [Example 58, (S)-1,1-Dioxo-2-[3-(2′,4′,5′-trifluoro-biphenyl-4-yloxymethyl)-benzyl]-1lambda*6*-[1,2]thiazinane-3-carboxylic acid] were 0.06 µM and 0.04 µM.
As for `O=C(O)[C@H]1CCS(=O)(=O)N1Cc1csc(COc2ccc(-c3cc(F)c(F)cc3F)cc2)n1` [Example 59, (R)-1,1-Dioxo-2-[2-(2′,4′,5′-trifluoro-biphenyl-4-yloxymethyl)-thiazol-4-ylmethyl]-1lambda*V-isothiazolidine-3-carboxylic acid], the EC50 is 16.6 µM and the “GS SC200” value came to 6.06 µM.
The matching figures for `O=C(O)[C@@H]1CCS(=O)(=O)N1Cc1csc(COc2ccc(-c3cc(F)c(F)cc3F)cc2)n1` [Example 60, (S)-1,1-Dioxo-2-[2-(2′,4′,5′-trifluoro-biphenyl-4-yloxymethyl)-thiazol-4-ylmethyl]-1lambda*6*-isothiazolidine-3-carboxylic acid]: 2.19 µM and 1.74 µM.
In the case of `COc1cc(F)c(F)cc1-c1ccc(OCc2nc(CN3[C@@H](C(=O)O)CCS3(=O)=O)cs2)cc1` [Example 61, (R)-2-[2-(4′,5′-Difluoro-2′-methoxy-biphenyl-4-yloxymethyl)-thiazol-4-ylmethyl]-1,1-dioxo-1lambda*6*-isothiazolidine-3-carboxylic acid], it took 1.17 µM to reach a half-maximal effect (EC50) and the “GS SC200” value amounted to 0.78 µM.
With `COc1cc(F)c(F)cc1-c1ccc(OCc2nc(CN3[C@H](C(=O)O)CCS3(=O)=O)cs2)cc1` [Example 62, (S)-2-[2-(4′,5′-Difluoro-2′-methoxy-biphenyl-4-yloxymethyl)-thiazol-4-ylmethyl]-1,1-dioxo-1lambda*6*-isothiazolidine-3-carboxylic acid], the EC50 was 0.43 µM and the “GS SC200” value was found to be 0.26 µM.
The matching figures for `COc1cc(F)c(F)cc1-c1ccc(OCc2cncc(CN3C(C(=O)O)CCS3(=O)=O)c2)cc1` (stereo not shown) [Example 63, 2-[5-(4′,5′-Difluoro-2′-methoxy-biphenyl-4-yloxymethyl)-pyridin-3-ylmethyl]-1,1-dioxo-1lambda*6*-isothiazolidine-3-carboxylic acid]: 0.55 µM and 0.01 µM.

One may read the EC50 as the concentration that produces a half-maximal response.
